These results are taken from article PMC9813676 (Current Research in Food Science, 2022).

SMILES strings stand for the structures.

In data set [1] the target is T1, porcine pancreatic lipase (Sus scrofa, UniProt P00591).
T1 sequence (P00591 1-450): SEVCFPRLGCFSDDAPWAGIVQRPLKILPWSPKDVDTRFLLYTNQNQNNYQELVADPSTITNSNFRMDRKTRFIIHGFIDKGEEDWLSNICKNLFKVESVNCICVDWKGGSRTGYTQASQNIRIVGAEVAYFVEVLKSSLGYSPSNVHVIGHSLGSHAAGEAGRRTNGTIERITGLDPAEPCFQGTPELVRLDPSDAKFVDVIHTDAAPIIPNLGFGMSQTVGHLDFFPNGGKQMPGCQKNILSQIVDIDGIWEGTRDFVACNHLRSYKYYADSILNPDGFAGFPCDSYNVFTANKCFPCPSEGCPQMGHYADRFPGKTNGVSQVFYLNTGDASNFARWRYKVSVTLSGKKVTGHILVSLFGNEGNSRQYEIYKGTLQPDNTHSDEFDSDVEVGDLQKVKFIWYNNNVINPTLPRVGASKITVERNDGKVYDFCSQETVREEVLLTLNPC
Put plainly: Fluorescence titration of lipase. It counts as binding. The settings on record: for n (number of binding sites) / binding affinity with lipase (in words): fluorescence titration; for n (number of binding sites): excitation 280 nm, Tris-HCl pH 8.0.

Data set [2] concerns the target T1, porcine pancreatic lipase. Put plainly: Inhibitory activity on pancreatic lipase. The conditions noted are these: IC50, pNPP substrate, Tris-HCl pH 8.0, 37 °C, means ± SD of triplicate.
For another data set, the system named is pancreatic lipase. The settings on record: ref Kumar and Alagawadi, 2013; cited from earlier work.
The conditions of data set [3]: rats, cited from earlier work.
For data set [4] the following is noted: ref Zhi et al., 1999; cited from earlier work.
The mark [5] stands for this setting: oral administration, ref Zhou et al., 2021.

`O=c1c(-c2ccc(O)cc2)coc2cc(O[C@@H]3O[C@H](CO)[C@@H](O)[C@H](O)[C@H]3O)cc(O)c12` [Genistin]: in data set [1], the Kd is 10.8 µM and the “n (number of binding sites)” value is on record as 1.086. In data set [2], this compound yielded a concentration for half-maximal inhibition (IC50) of over 0.925 mM.
Taken in the same sequence, the figures for `COc1ccc([C@@H]2CC(=O)c3c(O)cc(O)cc3O2)cc1O` [Hesperetin] were 41.4 µM, 0.998 and 3.03 ± 0.829 mM.
Taken in the same sequence, the figures for `COc1ccc(-c2coc3cc(O[C@@H]4O[C@H](CO)[C@@H](O)[C@H](O)[C@H]4O)ccc3c2=O)cc1` [Ononin] were 10.9 µM, 1.086 and over 1.16 mM.
With `O=c1c(-c2ccc(O)cc2)coc2cc(O)cc(O)c12` [Genistein], in data set [1], the dissociation constant Kd is 4.94 µM and the “n (number of binding sites)” value came to 1.129. The compound further registered an IC50 in data set [2] of over 2.96 mM.
With `O=c1c(O)c(-c2ccc(O)cc2)oc2cc(O)cc(O)c12` [Kaempferol], in data set [1], the Kd is 4.06 µM and the “n (number of binding sites)” value is listed as 1.163. In data set [2], this compound yielded an IC50 of over 0.983 mM.
On to `O=c1c(-c2ccc(O)cc2)coc2cc(O[C@@H]3O[C@H](CO)[C@@H](O)[C@H](O)[C@H]3O)ccc12` [Daidzin], for which, in data set [1], the affinity, expressed as Kd, was 141 µM and the “n (number of binding sites)” value is reported as 0.877. For the same compound, the half-inhibitory concentration (IC50) in data set [2] was over 1.15 mM.
Taken in the same sequence, the figures for `O=c1cc(-c2ccccc2)oc2cc(O)cc(O)c12` [Chrysin] were 16.3 µM, 0.964 and over 0.593 mM.
Consider `Oc1cc(O)c2c(c1)O[C@H](c1ccc(O)c(O)c1)[C@H](O)C2` [Epicatechin], for which, in data set [1], the Kd was 3160 µM, the “binding affinity with lipase (in words)” value is given as “very weak binding affinity” and the “n (number of binding sites)” value is 0.734. This compound came in with a half-maximal inhibitory concentration (IC50) in data set [2] of over 20.7 mM.
For `O=c1cc(-c2ccc(O)c(O)c2)oc2cc(O)c([C@@H]3O[C@H](CO)[C@@H](O)[C@H](O)[C@H]3O)c(O)c12` [Isoorientin], in data set [1], the affinity, expressed as Kd, was 4.66 µM and the “n (number of binding sites)” value came out at 1.278.
In the case of `Oc1cc(O)c2c(c1)O[C@H](c1cc(O)c(O)c(O)c1)[C@H](O)C2` [Epigallocatechin], in data set [1], the Kd is 5820 µM, the “binding affinity with lipase (in words)” value is “very weak binding affinity” and the “n (number of binding sites)” value turned out to be 0.670. In data set [2], this compound showed a concentration for half-maximal inhibition (IC50) of over 49 mM.
With `O=c1c(O)c(-c2ccccc2)oc2cc(O)cc(O)c12` [Galangin], in data set [1], the affinity, expressed as Kd, was 13.7 µM and the “n (number of binding sites)” value came out at 1.097. Moreover, the “inhibition on pancreatic lipase activity” value in the data set on pancreatic lipase is reported as “dose-dependent inhibition”. Also, in data set [3] (ref Kumar and Alagawadi, 2013), the anti-obesity effects result is listed as “exhibited anti-obesity effects”. The IC50 in data set [2] was 0.574 ± 0.132 mM.
For the compound `O=c1cc(-c2ccccc2)oc2cc(O)c(O)c(O)c12` [Baicalein], in data set [1], binding was characterised by a dissociation constant (Kd) of 0.671 µM and the “n (number of binding sites)” value was determined as 1.270. In addition, the midpoint of inhibition in data set [2], the IC50, lay at 0.156 ± 0.022 mM.
As for `O=C1C[C@@H](c2ccc(O)cc2)Oc2cc(O)cc(O)c21` [Naringenin], in data set [1], the Kd was 33.3 µM and the “n (number of binding sites)” value came out at 1.013. In data set [2], this compound displayed a 50% inhibitory concentration (IC50) of 6.032 ± 0.041 mM.
Turning to `O=c1cc(-c2ccc(O)cc2)oc2cc(O)cc(O)c12` [Apigenin], in data set [1], the Kd is 3.86 µM and the “n (number of binding sites)” value was found to be 1.156. The IC50 in data set [2] amounted to 0.256 ± 0.054 mM.
Taken in the same sequence, the figures for `O=C1c2c(O)cc(O)cc2O[C@H](c2cc(O)c(O)c(O)c2)[C@H]1O` [Dihydromyricetin] were 105 µM, 0.911 and 7.17 ± 0.418 mM.
As for `O=c1cc(-c2ccc(O)c(O)c2)oc2cc(O)cc(O)c12` [Luteolin], in data set [1], binding was put at a Kd of 0.156 µM and the “n (number of binding sites)” value is listed as 1.435. For the same compound, in data set [2], the IC50 stood at 0.099 ± 0.011 mM.
For `CCCCCCCCCCC[C@@H](C[C@@H]1OC(=O)[C@H]1CCCCCC)OC(=O)[C@H](CC(C)C)NC=O` [Orlistat], the “absorption in circulatory blood” value in data set [4] was “poorly absorbed”.
`C[C@@H]1O[C@@H](O[C@H]2C(=O)c3c(O)cc(O)cc3O[C@@H]2c2ccc(O)c(O)c2)[C@H](O)[C@H](O)[C@H]1O` [Astilbin]: in data set [1], the Kd is 151 µM and the “n (number of binding sites)” value was 0.850. The compound also registered an IC50 in data set [2] of 7.316 ± 0.066 mM.
The like results for `O=c1c(-c2ccc(O)cc2)coc2c([C@@H]3O[C@H](CO)[C@@H](O)[C@H](O)[C@H]3O)c(O)ccc12` [Puerarin] were, in that order, 1.43 µM, 1.232 and 16.8 ± 0.692 mM.
Turning to `O=c1c(-c2ccc(O)cc2)coc2cc(O)ccc12` [Daidzein], in data set [1], binding was characterised by a dissociation constant (Kd) of 11.6 µM and the “n (number of binding sites)” value is reported as 1.101. The compound also gave an IC50 in data set [2] of 0.852 ± 0.667 mM.
Taken in the same sequence, the figures for `O=C1c2c(O)cc(O)cc2OC(c2ccc(O)c(O)c2)C1O` (stereo not shown) [Taxifolin] were 56.2 µM, 0.956 and 3.87 ± 0.939 mM.
For the compound `O=c1c(O)c(-c2ccc(O)c(O)c2)oc2cc(O)cc(O)c12` [Quercetin], in data set [1], the “n (number of binding sites)” value amounted to 1.419. Also, in data set [3] (setting [5]), the “fat absorption in the gastrointestinal tract” value is reported as “significantly reduced fat absorption” and the “fat excretion in feces” value is “increased fat excretion in feces”.
Take `COc1ccc(-c2coc3cc(O)ccc3c2=O)cc1` [Formononetin]: in data set [1], the Kd was 83.2 µM and the “n (number of binding sites)” value came to 0.926. The IC50 in data set [2] is over 1.86 mM.
With `C[C@@H]1O[C@@H](OC[C@H]2O[C@@H](Oc3c(-c4ccc(O)c(O)c4)oc4cc(O)cc(O)c4c3=O)[C@H](O)[C@@H](O)[C@@H]2O)[C@H](O)[C@H](O)[C@H]1O` [Rutin], in data set [1], the Kd was 5.38 µM and the “n (number of binding sites)” value is 1.115. Moreover, in data set [2], the IC50 was found to be 0.367 ± 0.182 mM.

A word on the Kd: it is the free concentration of one partner at which half of the binding sites on the other are occupied at equilibrium, for simple one-to-one binding. A low value points to tighter binding. Broadly, the IC50 is the point on the concentration scale where inhibition reaches its midpoint. Read a low IC50 as inhibition by little substance.
